{"source": "patent US20190054035A1", "about": "“SELF-ASSEMBLED PEPTIDE NANOFIBERS AND USE THEREOF FOR TARGETED DRUG DELIVERY” (Yissum Research Development Company of the Hebrew …, priority 2017, published 2019)", "key": {"cathepsin B [1]": {"target": "T1, cathepsin B (Homo sapiens, UniProt P07858)", "T1 construct": "made in house; host or cells: E. coli BL21(DE3)pLysS", "test": "Turbidity analysis of TPS4 nanofiber degradation by cathepsin B", "format": "biochemical", "conditions": "0.5, 1 and 2 mg/ml TPS4, 37° C.", "protocol": "Turbidity analysis for TPS4 solutions was conducted using triplicates of freshly prepared solutions as described above in a 96 well plate. Aliquots of 1, 2 or 4 mg/ml were allowed to assemble for 4-5 hours at room temperature. Next, 0.064, 0.128 or 0.255 μM of cathepsin B or acetate buffer vehicle were added, diluting the samples to 0.5, 1, and 2 mg/ml, respectively. The plate was placed at 37° C. in a Biotek Synergy HT plate reader (Winooski, Vt., USA) and absorbance was measured for 12 hours as described above. After 24 hours since enzyme addition, a color picture was taken and the turbidity was measured again."}, "cathepsin B [2]": {"target": "T1, cathepsin B", "test": "Cleavage of substrate peptides by cathepsin B, fragment analysis by LC-MS", "format": "biochemical", "conditions": "3 hours at 37° C., pH 5.5, LC-MS fragment analysis", "protocol": "(§1) Each peptide (1 nmole) was treated with […] cathepsin B or cathepsin L (generated by transformation of E. coli BL21(DE3)pLysS strain with the pET3a/procathepsin B or procathepsin L vectors) or acetate buffer vehicle (50 mM acetate, 5 mM MgCl2, 2 mM DTT, adjusted to pH 5.5) for 3 hours at 37° C. Next, enzymes were precipitated by an hour incubation at −80° C. in 80% cold methanol followed by 10 minutes of 6000 g centrifugation at 4° C. Supernatant volume was reduced to about 15 μl under vacuum, adjusted to a final volume of 30 μl with methanol and analyzed by LCMS equipped with C18 reverse phase."}, "[3]": {"test": "Kinetics of TPS4 self-assembly by turbidity", "format": "physicochemical", "conditions": "0.5, 1 or 2 mg/ml, 37° C., first 5 hours", "protocol": "Freshly prepared aliquots of 0.5, 1 or 2 mg/ml of TPS4 were placed in triplicates in a 96-well plate, 100 ul/well. Plate was placed at 37° C. in a Biotek Cytation 3 plate reader (Winooski, Vt., USA) and absorbance at 350 nm was measured every 2 minutes during 5 hours."}, "[4]": {"test_system": "lysates from mice muscles", "test": "Nanofibers degradation by mice muscle lysates", "format": "biochemical", "conditions": "0.5 mg/ml TPS4, mice muscle lysates, first ten hours", "protocol": "(§2) Tissue lysates were prepared as previously described. Assembly of TPS4 in triplicates was performed for 4 hours in acetate buffer as described in FIG. 6B. Next, 100 μg of lysates from 4T1 tumor or muscles, or RIPA vehicle control (1% Tergitol-type NP-40 (nonyl phenoxypolyethoxylethanol), 0.1% SDS, 0.5% sodium deoxycholate) were added in acetate buffer. The absorbance was read at 350 nm after gentle shaking at 37° C. for indicated times using a BioTek plate reader."}, "cathepsin L": {"target": "T2, cathepsin L (Homo sapiens, UniProt P07711)", "T2 construct": "made in house; host or cells: E. coli BL21(DE3)pLysS", "T2 sequence (P07711 18-333 limits assumed)": "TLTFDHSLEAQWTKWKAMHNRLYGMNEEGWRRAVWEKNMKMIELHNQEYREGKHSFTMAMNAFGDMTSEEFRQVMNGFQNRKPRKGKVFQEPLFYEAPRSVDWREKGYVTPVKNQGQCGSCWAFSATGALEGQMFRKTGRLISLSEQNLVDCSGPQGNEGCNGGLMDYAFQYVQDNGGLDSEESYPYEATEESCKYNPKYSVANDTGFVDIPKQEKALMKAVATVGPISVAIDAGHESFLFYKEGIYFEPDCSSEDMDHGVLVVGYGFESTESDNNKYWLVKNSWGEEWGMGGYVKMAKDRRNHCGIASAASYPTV", "test": "Cleavage of substrate peptides by cathepsin L, fragment analysis by LC-MS", "format": "biochemical", "conditions": "3 hours at 37° C., pH 5.5, LC-MS fragment analysis", "protocol": "as §1"}, "4T1 tumor lysates": {"test_system": "4T1 tumor lysates", "test": "Nanofibers degradation by 4T1 tumor lysates", "format": "biochemical, mice", "protocol": "as §2"}, "MDA-MB 231 cells": {"test_system": "MDA-MB 231 cells", "test": "TPS4 nanofibers cytotoxicity, methylene blue assay", "format": "cell-based, human", "conditions": "0.5 mg/ml nanofibers, 24 or 48 hours", "protocol": "MDA-MB 231 human breast adenocarcinoma cells were cultured in Dulbecco's modified eagle's medium (DMEM) supplemented with 10% fetal bovine serum (FBS), 1% penicillin and 1% streptomycin in a humidified atmosphere of 5% CO2 at 37° C. One day prior to treatment MDA-MB 231 cells (7×10^3 cells/well) were cultured in a 96-well plate. The media of TPS4 that was assembled in DMEM was removed by centrifugation (14,000 rpm, 4° C.) and the nanofibers were resuspended in DMEM supplemented with 10% […], 1% penicillin and 1% streptomycin. Cells in triplicates were incubated with 0.5 mg/ml of TPS4 nanofibers (final concentration of 0.1% DMSO was kept constant) in growth medium at 37° C. After 24 or 48 hours of treatment, cell survival was determined by standard methylene blue assay."}, "[5]": {"test": "Self-assembly of TPSs into nanofibers, electron microscopy (TEM/SEM)", "format": "physicochemical", "conditions": "for Diameter of TPS nanofibers / self-assembly into ordered nanofibers: TEM; for Diameter of TPS nanofibers: solvent switching DMSO to water; for self-assembly into ordered nanofibers: 5 mg/ml (1 mg/ml TPS8, TPS9)", "protocol": "Lyophilized peptides were dissolved in DMSO to a concentration of 100 mg/ml and then diluted in DDW to the indicated final concentration.\nTransmission electron microscopy (TEM) analysis was performed by applying 10 μl of samples to a 200 or 400-mesh copper grids covered by carbon-stabilized Formvar film (SPI, West Chester, Pa.). The samples were allowed to adsorb for 2 minutes before excess fluid was blotted off. Samples were negatively stained by depositing 10 μl of 2% uranyl acetate on the grid and allowing it to adsorb for 2 minutes before excess fluid was blotted off. Except the sample in FIG. 9E, all samples were negatively stained. TEM micrographs were recorded using a JEOL 1200EX or JEOL JEM-1400Plus electron microscope operating at different kV.\nScanning Electron Microscopy (SEM) samples were prepared as described above for TEM on a 400-mesh copper grids, without uranyl acetate staining, and viewed using FBI Magellan™ 400L system."}}, "note": "“Also recorded” adds a separate entry of the source. Where a SMILES comes first, the peptide text is derived from it. The star is where a group is joined. Fmoc = O=C(OCC1c2ccccc2-c2ccccc21)*; Cbz = O=C(OCc1ccccc1)*"}
{"compound": "NCCCC[C@H](NC(=O)[C@H](Cc1ccccc1)NC(=O)[C@H](Cc1ccccc1)NC(=O)OCc1ccccc1)C(=O)N[C@@H](Cc1ccccc1)C(=O)O", "note": "[TPS4, Cbz-FFKF-OH] (Cbz-FFKF-OH)", "values": [{"measurement": "degradation of assembled nanofibers by cathepsin B (turbidity at 350 nm)", "setting": "cathepsin B [1]", "value": "significant and robust degradation"}, {"measurement": "Number of amino acids removed from each TPS after cathepsin treatment, Cat B", "setting": "cathepsin B [2]", "value": 2}, {"measurement": "increase in turbidity (absorbance at 350 nm) during self-assembly", "setting": "[3]", "value": "up to 2.8±0.6 folds"}, {"measurement": "nanofiber degradation over time", "setting": "[4]", "value": "limited effect"}, {"measurement": "Number of amino acids removed from each TPS after cathepsin treatment, Cat L", "setting": "cathepsin L", "value": 2}, {"measurement": "nanofiber degradation over time", "setting": "4T1 tumor lysates; 0.5 mg/ml TPS4, 4T1 tumor lysates, turbidity at 350 nm", "value": "degraded the majority of TPS4 nanofibers within two hours"}, {"measurement": "remaining nanofibers relative to vehicle (absorbance at 350 nm)", "setting": "4T1 tumor lysates; overnight lysate treatment, all concentrations tested", "value": "less than 20%"}, {"measurement": "nanofiber degradation at the lowest concentration", "setting": "4T1 tumor lysates; overnight lysate treatment, lowest TPS4 concentration", "value": "full degradation"}, {"measurement": "cytotoxicity / growth inhibition", "setting": "MDA-MB 231 cells", "value": "no growth inhibition; also recorded: no cytotoxicity"}, {"measurement": "Diameter of TPS nanofibers", "setting": "[5]", "value": "24 ± 6", "unit": "nm"}, {"measurement": "time to form fibers upon assembly initiation", "setting": "[5]; microscopic examination (data not shown)", "value": "instantly formed fibers"}]}
{"compound": "Ac-FFKF-OH [TPS2]", "values": [{"measurement": "Number of amino acids removed from each TPS after cathepsin treatment, Cat B", "setting": "cathepsin B [2]", "value": 2}, {"measurement": "Number of amino acids removed from each TPS after cathepsin treatment, Cat L", "setting": "cathepsin L", "value": 2}, {"measurement": "Diameter of TPS nanofibers", "setting": "[5]", "value": "12 ± 1", "unit": "nm"}]}
{"compound": "Ac-FFKF-amide [TPS7]", "values": [{"measurement": "Number of amino acids removed from each TPS after cathepsin treatment, Cat B", "setting": "cathepsin B [2]", "value": 1}, {"measurement": "Number of amino acids removed from each TPS after cathepsin treatment, Cat L", "setting": "cathepsin L", "value": 2}, {"measurement": "self-assembly into ordered nanofibers", "setting": "[5]", "value": "excluding"}]}
{"compound": "Cbz-FFKF-NH2 [TPS8]", "values": [{"measurement": "Number of amino acids removed from each TPS after cathepsin treatment, Cat L", "setting": "cathepsin L", "value": 2}, {"measurement": "Diameter of TPS nanofibers", "setting": "[5]", "value": "30 ± 6", "unit": "nm"}]}
{"compound": "Fmoc-FFKF-NH2 [TPS9]", "values": [{"measurement": "Diameter of TPS nanofibers", "setting": "[5]", "value": "13 ± 4", "unit": "nm"}]}
{"compound": "Fmoc-FFKF-OH (SMILES NCCCC[C@H](NC(=O)[C@H](Cc1ccccc1)NC(=O)[C@H](Cc1ccccc1)NC(=O)OCC1c2ccccc2-c2ccccc21)C(=O)N[C@@H](Cc1ccccc1)C(=O)O) [TPS3]", "values": [{"measurement": "Number of amino acids removed from each TPS after cathepsin treatment, Cat L", "setting": "cathepsin L", "value": 2}, {"measurement": "Diameter of TPS nanofibers", "setting": "[5]", "value": "14 ± 2", "unit": "nm"}]}
{"compound": "Fmoc-Phe-Lys-Phe-NH2 [TPS5]", "values": [{"measurement": "Number of amino acids removed from each TPS after cathepsin treatment, Cat B", "setting": "cathepsin B [2]", "value": 1}, {"measurement": "Number of amino acids removed from each TPS after cathepsin treatment, Cat L", "setting": "cathepsin L", "value": 1}, {"measurement": "Diameter of TPS nanofibers", "setting": "[5]", "value": "66 ± 13", "unit": "nm"}]}
{"compound": "NH2-FFKF-OH (H-FFKF-OH) [TPS1]", "values": [{"measurement": "Number of amino acids removed from each TPS after cathepsin treatment, Cat B", "setting": "cathepsin B [2]", "value": 1}, {"measurement": "Number of amino acids removed from each TPS after cathepsin treatment, Cat L", "setting": "cathepsin L", "value": 2}, {"measurement": "Diameter of TPS nanofibers", "setting": "[5]", "value": "310 ± 80", "unit": "nm"}]}
{"compound": "NH2-FFKF-amide [TPS6]", "values": [{"measurement": "Number of amino acids removed from each TPS after cathepsin treatment, Cat B", "setting": "cathepsin B [2]", "value": 1}, {"measurement": "Number of amino acids removed from each TPS after cathepsin treatment, Cat L", "setting": "cathepsin L", "value": 2}, {"measurement": "self-assembly into ordered nanofibers", "setting": "[5]", "value": "excluding"}]}
